The results in this text go back to ChEMBL document CHEMBL5244272 (Eur J Med Chem, 2021).

In general, ED50 refers to the dose at which the effect has come halfway, by size or by number of responders. As usually defined, the EC50 is the midpoint of the concentration-response curve.

In data set [1] the test system is Plasmodium falciparum. Put plainly: Antimalarial activity against Plasmodium falciparum K1. The format is functional, organism-based.
The subject of data set [2] is Plasmodium falciparum. Put plainly: Antimalarial activity against chloroquine sensitive Plasmodium falciparum FCR-3. The format is functional, organism-based.
The subject of data set [3] is Plasmodium berghei. Put plainly: Antimalarial activity against Plasmodium berghei N strain infected in mouse at 30 mg/kg, ip administered once daily for 4 days. The format is functional. To be noted: time 4 day.
The subject of data set [4] is Plasmodium berghei. Put plainly: Antimalarial activity against Plasmodium berghei N strain infected in mouse at 15 mg/kg, ip administered once daily for 4 days. The format is functional. To be noted: time 4 day.
Data set [5] can be described thus: Cytotoxicity against human MRC5 cells. The format is toxicity, cell-based.
Data set [6] has as its system Plasmodium berghei. Put plainly: Antimalarial activity against Plasmodium berghei infected in mouse assessed reduction in parasitemia measured after 4 days. The format is functional. More on the design: scale not given: the % may be the effect or the level left. Particulars: time 4 day.
For data set [7], the system named is Plasmodium falciparum. As to the kind of experiment: Antimalarial activity against Plasmodium falciparum NF54. The format is functional, organism-based.
In data set [8] the test system is Plasmodium berghei. Put plainly: Antimalarial activity against Plasmodium berghei infected in mouse assessed increase in survival time. The format is functional.
Data set [9] has as its system Plasmodium yoelii. Put plainly: Antimalarial activity against Plasmodium yoelii infected in sc dosed mouse. The format is functional.
Data set [10] concerns Plasmodium berghei. As to the kind of experiment: Antimalarial activity against Plasmodium berghei infected in po dosed mouse. The format is functional.
The test system of data set [11] is Plasmodium yoelii. Put plainly: Antimalarial activity against Plasmodium yoelii infected in po dosed mouse. The format is functional.
Data set [12] relates to Plasmodium berghei. As to the kind of experiment: Antimalarial activity against Plasmodium berghei infected in sc dosed mouse. The format is functional. Particulars: Plasmodium berghei.
Data set [13] relates to Plasmodium falciparum. Put plainly: Antimalarial activity against Plasmodium falciparum IPC5202. The format is functional, organism-based.
For data set [14], the system named is Plasmodium falciparum. As to the kind of experiment: Antimalarial activity against Plasmodium falciparum 3D7. The format is functional, organism-based.
Data set [15] relates to Plasmodium falciparum. As to the kind of experiment: Antimalarial activity against Plasmodium falciparum Dd2. The format is functional, organism-based.
The subject of data set [16] is Plasmodium falciparum. Put plainly: Antimalarial activity against Plasmodium falciparum IPC4912. The format is functional, organism-based.
In data set [17] the test system is Plasmodium vinckei. Put plainly: Antimalarial activity against Plasmodium vinckei infected in mouse assessed as reduction in parasitaemia at 50 mg/kg, po or […], ip measured on day 5. The arrangement: scale not given: the % may be the effect or the level left. The format is functional.
Data set [18] has as its system Plasmodium vinckei. As to the kind of experiment: Antimalarial activity against Plasmodium vinckei infected in mouse assessed as reduction in parasitaemia at 25 mg/kg, po or 7.5 mg/kg, ip measured on day 5. The format is functional. More on the design: scale not given: the % may be the effect or the level left.
In data set [19] the test system is Plasmodium falciparum. Put plainly: Antimalarial activity against Plasmodium falciparum FcB1 at 100 ng/ml. The format is functional.
The subject of data set [20] is Plasmodium falciparum. As to the kind of experiment: Antimalarial activity against Plasmodium falciparum FcB1 at 10 ng/ml. The format is functional.
For data set [21], the system named is Plasmodium falciparum. Put plainly: Antimalarial activity against Plasmodium falciparum FcB1 at 1 ng/ml. The format is functional.
For data set [22], the system named is Plasmodium falciparum. Put plainly: Antimalarial activity against Plasmodium falciparum W2. The format is functional, organism-based.
The nature of data set [23]: Selectivity index, ratio of IC50 for HEK293 cells to IC50 for Plasmodium falciparum NF54. The format is toxicity. Particulars: human, read-out: Ratio IC50.
Data set [24] can be described thus: Selectivity index, ratio of IC50 for human AB943 to IC50 for chloroquine resistant Plasmodium falciparum FcB1/Colombia.
In data set [25] the test system is Plasmodium falciparum. Put plainly: Antimalarial activity against chloroquine resistant Plasmodium falciparum FcB1/Colombia. The format is functional, organism-based.
Data set [26] relates to Plasmodium falciparum. As to the kind of experiment: Antimalarial activity against chloroquine-sensitive Plasmodium falciparum NF54 infected in po dosed mouse. The format is functional.
The subject of data set [27] is Plasmodium falciparum. As to the kind of experiment: Antimalarial activity against chloroquine-sensitive Plasmodium falciparum NF54 infected in iv dosed mouse. The format is functional.
The test system of data set [28] is Plasmodium yoelii. As to the kind of experiment: Antimalarial activity against Plasmodium yoelii infected in mouse. The format is functional.
Data set [29] has as its system Plasmodium falciparum. Put plainly: Antimalarial activity against chloroquine-sensitive Plasmodium falciparum NF54. The format is functional, organism-based.
For data set [30], the system named is Plasmodium berghei. As to the kind of experiment: Antimalarial activity against Plasmodium berghei K173 infected in mouse. The format is functional. Particulars: Plasmodium berghei, K173.
The subject of data set [31] is Plasmodium falciparum. Put plainly: Antimalarial activity against chloroquine resistant Plasmodium falciparum. The format is functional, organism-based.
Data set [32] relates to Plasmodium falciparum. As to the kind of experiment: Antimalarial activity against Plasmodium falciparum IV-V gametocytes. The format is functional, organism-based.
The test system of data set [33] is Plasmodium vinckei. Put plainly: Antimalarial activity against Plasmodium vinckei infected in ip dosed mouse. The format is functional.
The test system of data set [34] is Plasmodium vinckei. Put plainly: Antimalarial activity against Plasmodium vinckei infected in po dosed mouse. The format is functional.
Data set [35] relates to Plasmodium berghei. As to the kind of experiment: Antimalarial activity against Plasmodium berghei ANKA infected in mouse at 30 mg/kg, po. The format is functional.

`C[C@H]1C(=O)O[C@@H]2O[C@]3(C)CC[C@H]4N(Cc5ccccc5)CC[C@@H]1[C@@]24OO3`: the IC50 worked out at 86 nM with Plasmodium falciparum [1], 58 nM in the data set on Plasmodium falciparum [2] and 160000 nM in data set [5]. Also, the Activity with Plasmodium berghei [3] is listed as 95.6%; in the data set with Plasmodium berghei [4], 69.1%.
`Oc1ccc(C2CCC3(CC2)OOC2(OO3)C3CC4CC(C3)CC2C4)cc1CN1CCCC1` (stereo unspecified) returned an Activity in the data set on Plasmodium berghei [6] above 99.7%. Moreover, the IC50 in the data set with Plasmodium falciparum [1] and in the data set on Plasmodium falciparum [7] was 4.8 nM throughout. The Time in the data set on Plasmodium berghei [8] worked out at 25 days.
Take `C[C@H]1[C@H](NC2CCOCC2)O[C@@H]2O[C@]3(C)CC[C@H]4[C@H](C)CC[C@@H]1[C@@]24OO3`: the ED90 in the data set on Plasmodium yoelii [9] worked out at 1.25 mg/kg; in the data set on Plasmodium berghei [10] it was 1.3 mg/kg; in the data set on Plasmodium yoelii [11], 1.84 mg/kg; in the data set on Plasmodium berghei [12] it was 0.18 mg/kg.
Turning to `C1C2CC3CC1CC(C2)[C@]31OO[C@@]2(CCC(Nc3nn[nH]n3)CC2)O1` (stereo partly specified), the IC50 was 6.1 nM in the data set with Plasmodium falciparum [13], 2.8 nM in the data set with Plasmodium falciparum [14], 2.5 nM with Plasmodium falciparum [15] and 6.8 nM in the data set on Plasmodium falciparum [16].
`C[C@H]1[C@@H](OCCN(CCCNc2ccnc3cc(Cl)ccc23)CCO[C@H]2O[C@@H]3O[C@]4(C)CC[C@H]5[C@H](C)CC[C@@H]([C@H]2C)[C@@]35OO4)O[C@@H]2O[C@]3(C)CC[C@H]4[C@H](C)CC[C@@H]1[C@@]24OO3`: the Activity with Plasmodium vinckei [17] and in the data set on Plasmodium vinckei [18] was below 1% in each case.
Regarding `CCCN(CC(=O)NC(=O)c1ccccc1)C(=O)CCN1C(=O)[C@H](C)[C@@H]2CC[C@@H](C)[C@@H]3CC[C@]4(C)OO[C@]32[C@H]1O4`, the Activity with Plasmodium falciparum [19] was found to be 100%; with Plasmodium falciparum [20], 99%; in the data set with Plasmodium falciparum [21], 100%.
For the compound `CC(C)CCC[C@H](C)C1CC[C@H]2[C@@H]3CC=C4C[C@@H](OC(=O)CCN5CCN([C@H]6O[C@@H]7O[C@]8(C)CC[C@H]9[C@H](C)CC[C@@H]([C@H]6C)[C@@]79OO8)CC5)CC[C@]4(C)[C@H]3CC[C@]12C` (stereo partly specified), the IC50 came out at 24 nM in the data set on Plasmodium falciparum [22], 29 nM in the data set with Plasmodium falciparum [1] and 31 nM in the data set with Plasmodium falciparum [7]. Further, in [23], the selectivity ratio amounted to 3900.
As to `CCOP(=O)(CCCN(O)C(=O)CCC(=O)N(CCCCNC(=O)CC[C@@H]1O[C@@H]2O[C@@]3(C)CC[C@@H]4[C@@H](C)CC[C@@H]([C@@H]1C)[C@]24OO3)CCCNC(=O)CCO[C@H]1O[C@@H]2O[C@]3(C)CC[C@H]4[C@H](C)CC[C@@H]([C@H]1C)[C@@]24OO3)OCC`, in data set [24], the Ratio IC50 amounted to 94. The compound further had an IC50 with Plasmodium falciparum [25] of 0.36 nM.
For the compound `C[C@@H]1CC[C@H]2[C@@H](C)C(=O)N(CCC(=O)N(CC(=O)NC(=O)c3ccccc3)C(C)(C)C)[C@@H]3O[C@]4(C)CC[C@@H]1[C@@]23OO4`, the Activity in the data set with Plasmodium falciparum [19] is 100%; in the data set with Plasmodium falciparum [20], 99%; with Plasmodium falciparum [21], 98%.
With `C[C@H]1[C@H](OC(=O)CCC(=O)O)O[C@@H]2O[C@@]3(C)CC[C@H]4[C@H](C)CC[C@@H]1[C@@]24OO3` [ARTESUNATE], the IC50 in the data set with Plasmodium falciparum [22] was found to be 2 nM; in the data set with Plasmodium falciparum [1], 1.2 ng/mL; in the data set with Plasmodium falciparum [7], 1.2 ng/mL; with Plasmodium falciparum [29], 18.4 nM. For the same compound, the ED50 in the data set on Plasmodium falciparum [26] came to 5.5 mg/kg; with Plasmodium falciparum [27], 5.5 mg/kg; in the data set on Plasmodium yoelii [28], 5 mg/kg; in the data set on Plasmodium berghei [30], 6.33 mg/kg/day. Moreover, in the data set on Plasmodium falciparum [14] (read-out: EC50), the EC50 amounted to 8.9 nM. For the same compound, in the data set on Plasmodium berghei [3], the Activity is given as 97.7%.
Compound `CC(=O)OCCC[C@]12O[C@H]([C@@H]3OO[C@H]1O3)[C@H](C)C(=O)[C@@H]2C` yielded an IC50 in the data set on Plasmodium falciparum [31] of 3 microg/cm3.
`C[C@H]1C(=O)O[C@@H]2O[C@]3(C)CC[C@H]4N(Cc5ccc(OCCN6CCOCC6)cc5)CC[C@@H]1[C@@]24OO3`: the IC50 stood at 33 nM in the data set with Plasmodium falciparum [1], 18 nM in the data set with Plasmodium falciparum [2] and 35600 nM in data set [5]. Moreover, the Activity with Plasmodium berghei [4] is listed as 98.6%.
As to `CCCCNC(=O)CCC(C)[C@H]1CCC2C3C(C[C@H](OC(C)=O)[C@@]21C)[C@@]1(C)CCC2(C[C@H]1C[C@H]3OC(C)=O)OOCOO2` (stereo partly specified), the IC50 in the data set with Plasmodium falciparum [32] worked out at 1160 nM.
In the case of `C[C@H]1[C@@H](OCCNCCCNc2ccnc3cc(Cl)ccc23)O[C@@H]2O[C@]3(C)CC[C@H]4[C@H](C)CC[C@@H]1[C@@]24OO3`, the IC50 in the data set on Plasmodium falciparum [14] amounted to 5.2 nM. The ED50 is below 0.8 mg/kg with Plasmodium vinckei [33] and 13 mg/kg in the data set with Plasmodium vinckei [34].
As to `O=C(CC1CCC2(CC1)OOC1(OO2)C2CC3CC(C2)CC1C3)NC1CC1` (stereo unspecified), the Activity with Plasmodium berghei [35] is recorded as 100%.
